In test [1] the target is T1, human PLK4 (Homo sapiens, UniProt O00444).
T1 construct: amino terminal GST fusion of residues 1-391 of human PLK4; made in house; host or cells: E. coli
T1 sequence (O00444 1-391): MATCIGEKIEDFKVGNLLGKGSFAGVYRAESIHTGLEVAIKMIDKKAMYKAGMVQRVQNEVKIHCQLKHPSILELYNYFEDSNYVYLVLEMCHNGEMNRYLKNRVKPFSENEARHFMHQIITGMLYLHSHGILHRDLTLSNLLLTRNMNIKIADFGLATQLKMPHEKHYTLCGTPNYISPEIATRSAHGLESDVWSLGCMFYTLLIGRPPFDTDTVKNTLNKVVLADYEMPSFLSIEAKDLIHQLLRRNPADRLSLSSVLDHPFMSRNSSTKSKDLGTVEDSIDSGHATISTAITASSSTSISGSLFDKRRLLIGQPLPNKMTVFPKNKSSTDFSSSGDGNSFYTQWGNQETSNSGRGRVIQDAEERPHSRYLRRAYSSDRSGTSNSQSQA
Briefly: PLK4 inhibition assay (indirect ELISA). As to conditions: read-out: IC50 Ranges PLK4. Format: biochemical. On the procedure: The protein was purified from clarified cell extracts after induction at 15° C. overnight using glutathione sepharose, gel permeation chromatography, and ion exchange (Resource Q). The resulting protein was dephosphorylated with lambda phosphatase (NEB cat# P0753), and resolved from the phosphatase using gluthione sepharose. The dephosphorylated GST-PLK4 was stored in aliquots at −80° C. until use.
PLK4 activity was measured using an indirect ELISA detection system. […] The colourimetric reaction was allowed to continue for 5 minutes, followed by addition of stop solution (0.5 N sulphuric acid), and quantified by detection at 450 nm with either a monochromatic or filter based plate reader (Molecular Devices M5 or Beckman DTX880, respectively).
Compounds were pre-incubated in the presence of enzyme for 15 minutes prior to addition of ATP and the activity remaining quantified using the above described activity assay. […] The IC50 value was determined using a non-linear 4 point logistic curve fit (XLfit4, IDBS) with the formula; (A+(B/(1+((x/C)^D)))), where A=background value, B=range, C=inflection point, D=curve fit parameter.

For test [2], the target named is T2, Aurora B (Homo sapiens, UniProt Q96GD4).
T2 construct: purchased Invitrogen PV3970
T2 sequence (Q96GD4 whole entry): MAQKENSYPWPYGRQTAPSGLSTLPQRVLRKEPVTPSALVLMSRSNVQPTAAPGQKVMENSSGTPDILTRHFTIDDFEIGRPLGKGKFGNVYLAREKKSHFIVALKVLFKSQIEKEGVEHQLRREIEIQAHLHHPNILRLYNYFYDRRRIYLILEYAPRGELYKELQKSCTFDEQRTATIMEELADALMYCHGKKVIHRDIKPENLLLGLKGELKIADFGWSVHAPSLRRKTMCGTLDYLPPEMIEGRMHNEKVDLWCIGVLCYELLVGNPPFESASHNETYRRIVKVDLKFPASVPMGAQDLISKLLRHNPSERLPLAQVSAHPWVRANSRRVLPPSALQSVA
Briefly: Aurora B inhibition assay (Z-Lyte). Format: biochemical. The settings on record: read-out: IC50 Ranges Aurura B. On the procedure:
Aurora B inhibition was determined using the Z-Lyte assay kit from Invitrogen. […] The % inhibition values were determined according to the manufacturer's directions and IC50 values were obtained using a non-linear 4 point logistic curve fit (XLfit4, IDBS).

Test [3] has as its system AMPKalpha. Kind of test: Kinase selectivity assay (CEREP, HTRF). Type of test: biochemical, human. On the procedure: The inhibitory activity of selected compounds was evaluated against a panel of 45 different kinase enzymes by CEREP, France. The assays were performed using standard HTRF assay methods as documented by CEREP against the human orthologues of Abl kinase, Akt1/PKBa, AMPKa, BMX kinase (Etk), Brk, CaMK2a, CaMK4, CDC2/CDK1 (cycB), CHK1, CHK2, c-Met kinase, CSK, EphB4 kinase, ERK1, ERK2 (P42mapk), FGFR2 kinase, FGFR4 kinase, FLT-1 kinase (VEGFR1), FLT-3 kinase, Fyn kinase, IGF1R kinase, IRK (InsR), JNK 2, KDR kinase (VEGFR2), Lck kinase, Lyn kinase, MAPKAPK2, MEK1/MAP2K1, p38a kinase, p38d kinase, p38g kinase, PDGFRb kinase, PDK1, PKA, PKCa, PKCb1, PKCb2, PKCg, Ret kinase, ROCK2, RSK2, Src kinase, Syk, and TRKA. The % Inhibition was determined by the formula; % Inhibition=100×(1−(experimental value−background value)/(high activity control−background value)).
A general note: TR-FRET usually uses a lanthanide donor and a delayed reading to cut background.

The target of test [4] is T3, Aurora A (Homo sapiens, UniProt O14965).
T3 construct: purchased Invitrogen PV3612
T3 sequence (O14965 1-403): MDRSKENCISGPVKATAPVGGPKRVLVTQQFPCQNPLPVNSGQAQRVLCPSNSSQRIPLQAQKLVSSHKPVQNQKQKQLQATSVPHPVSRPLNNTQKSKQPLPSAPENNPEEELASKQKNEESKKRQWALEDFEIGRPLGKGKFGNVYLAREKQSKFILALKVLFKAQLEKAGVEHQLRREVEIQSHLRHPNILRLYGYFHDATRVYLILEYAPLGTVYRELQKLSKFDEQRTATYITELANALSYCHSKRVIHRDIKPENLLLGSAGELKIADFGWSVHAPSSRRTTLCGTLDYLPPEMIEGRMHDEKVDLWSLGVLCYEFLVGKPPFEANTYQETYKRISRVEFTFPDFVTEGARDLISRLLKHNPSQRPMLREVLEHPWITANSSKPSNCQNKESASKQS
Briefly: Aurora A inhibition assay (Z-Lyte). As to conditions: for inhibition at 10 µM: dose of 10 μM, read-out: Aurora A relative inhibition percentage. Type of test: biochemical. The protocol:
Aurora A inhibition was determined using the Z-Lyte assay kit from Invitrogen. The assay was performed using the recommended manufacturer's instructions with 20 nM ATP and 12 nM Aurora A (Invitrogen cat #PV3612). The % inhibition values were determined according to the manufacturer's directions and IC50 values were obtained using a non-linear 4 point logistic curve fit (XLfit4, IDBS)

The target in test [5] is T4, PLK2 (Homo sapiens, UniProt Q9NYY3).
T4 construct: purchased Invitrogen PV4204
T4 sequence (Q9NYY3 whole entry): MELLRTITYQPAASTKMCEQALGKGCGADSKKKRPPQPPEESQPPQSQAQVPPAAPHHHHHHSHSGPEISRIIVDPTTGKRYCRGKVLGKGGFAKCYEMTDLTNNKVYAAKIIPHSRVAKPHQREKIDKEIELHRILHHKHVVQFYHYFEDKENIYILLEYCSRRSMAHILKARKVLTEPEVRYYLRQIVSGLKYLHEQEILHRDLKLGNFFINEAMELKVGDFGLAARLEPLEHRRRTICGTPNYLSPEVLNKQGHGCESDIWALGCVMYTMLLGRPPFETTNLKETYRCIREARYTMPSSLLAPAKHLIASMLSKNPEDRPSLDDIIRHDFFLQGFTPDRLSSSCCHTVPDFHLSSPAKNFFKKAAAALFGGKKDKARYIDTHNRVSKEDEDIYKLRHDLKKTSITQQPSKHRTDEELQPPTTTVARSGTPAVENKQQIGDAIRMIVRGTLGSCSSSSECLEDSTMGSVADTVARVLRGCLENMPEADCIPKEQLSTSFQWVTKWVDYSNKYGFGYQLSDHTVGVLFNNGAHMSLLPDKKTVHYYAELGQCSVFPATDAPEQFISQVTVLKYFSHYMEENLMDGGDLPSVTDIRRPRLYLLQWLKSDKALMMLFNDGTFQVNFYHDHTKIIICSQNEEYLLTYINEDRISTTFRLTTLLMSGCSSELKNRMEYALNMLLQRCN
Kind of test: PLK2 inhibition assay (Z-Lyte). Format: biochemical. The settings on record: for inhibition at 10 µM: dose of 10 μM, read-out: PLK2 relative inhibition percentage. On the procedure:
PLK2 inhibition was determined using the Z-Lyte assay kit from Invitrogen (cat# PV3802). The assay was performed using the recommended manufacturer's instructions with 60 μM ATP and 133 nM PLK2 (Invitrogen cat #PV4204). The % inhibition values were determined according to the manufacturer's directions and IC50 values were obtained using a non-linear 4 point logistic curve fit (XLfit4, IDBS)

For test [6], the target named is T5, PLK1 (Homo sapiens, UniProt P53350).
T5 construct: purchased Invitrogen PV3501
T5 sequence (P53350 whole entry): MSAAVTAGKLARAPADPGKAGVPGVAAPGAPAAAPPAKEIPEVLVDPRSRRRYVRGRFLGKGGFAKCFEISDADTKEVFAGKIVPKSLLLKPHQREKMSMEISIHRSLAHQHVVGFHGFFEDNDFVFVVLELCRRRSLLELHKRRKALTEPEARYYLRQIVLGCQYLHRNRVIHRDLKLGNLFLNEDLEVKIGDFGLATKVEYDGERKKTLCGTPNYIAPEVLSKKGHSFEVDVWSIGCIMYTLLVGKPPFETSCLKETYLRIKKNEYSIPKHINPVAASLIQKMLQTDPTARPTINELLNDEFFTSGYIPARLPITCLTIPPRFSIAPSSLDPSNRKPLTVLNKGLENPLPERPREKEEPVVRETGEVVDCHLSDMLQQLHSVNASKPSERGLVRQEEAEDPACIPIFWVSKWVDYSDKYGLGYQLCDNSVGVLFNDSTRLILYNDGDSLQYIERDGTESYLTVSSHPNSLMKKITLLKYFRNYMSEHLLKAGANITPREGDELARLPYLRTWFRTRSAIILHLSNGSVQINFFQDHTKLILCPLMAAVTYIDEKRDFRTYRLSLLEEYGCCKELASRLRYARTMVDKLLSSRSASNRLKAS
Kind of test: PLK1 inhibition assay (Z-Lyte). Type of test: biochemical. As to conditions: dose of 10 μM; read-out: PLK1 relative inhibition percentage.
Method: PLK1 inhibition was determined using the Z-Lyte assay kit from Invitrogen (cat#PV3802). The assay was performed using the recommended manufacturer's instructions with 25 μM ATP and 8 nM PLK1 (Invitrogen cat #PV3501). The % inhibition values were determined according to the manufacturer's directions and IC50 values were obtained using a non-linear 4 point logistic curve fit (XLfit4, IDBS)

The target in test [7] is FGFR1. Briefly: Millipore kinase assay (radiolabelled phosphopeptide filter binding), IC50 estimate. Format: biochemical. The settings on record: estimated from inhibition at three compound concentrations; ATP at Km; read-out: IC50 value estimates against FGFR1. On the procedure: For a number of compounds, IC50 values were estimated against kinases of interest based on Millipore protocols. Kinase assays at Millipore were performed using a radiolabelled phosphopeptide filter binding detection system, in duplicate, at each compound concentration. The ATP substrate concentration in the reactions was at the Km for each enzyme.
To allow for a more direct comparison of compound inhibition, an IC50 value was estimated from the inhibition determined at three compound concentrations. Several assumptions were made to allow this calculation using a 4 parameter non linear curve fit model, including full inhibition set at 100%, no inhibition set to 0%, and a curve fit parameter set at 1. The inflection point was reported as the estimated […].

The subject of test [8] is MDA-MB-468 basal breast cancer cell line. Kind of test: Cell growth inhibition, Sulforhodamine B (SRB) assay. Format: cell-based. As to conditions: Homo sapiens, MDA-MB-468, 120 h; 5 days, SRB; read-out: Cell Line GI50 Range MDA-MB-468. Background: In SRB staining, fixed cells bind dye roughly in proportion to their protein.
The subject of test [9] is SW620 colon cancer cell line. The test is described as above. Format: cell-based. As to conditions: Homo sapiens, SW-620, 120 h; 5 days, SRB; read-out: Cell Line GI50 Range SW620. On the procedure: (§1) Aliquots (20 μl) from each concentration were overlaid to 80 μl of the pre-seeded cells in the 96-plates to make final concentrations of 10 nM to 50 μM. The cells were cultured for 5 days before the Sulforhodamine B (SRB) assay was performed to determine the compound's cell growth inhibition activity.
(§2) Sulforhodamine B (Sigma, Canada) is a water-soluble dye that binds to the basic amino acids of cellular proteins. Thus, colorimetric measurement of the bound dye provides an estimate of the total protein mass that is related to the cell number. The cells are fixed in situ by gently aspirating off the culture media and adding 50 μl ice cold 10% Trichloroacetic Acid (TCA) per well and incubated at 4° C. for 30-60 min. The plates are washed with water five times and allowed to air dry for 5 min. Addition of 50 μl 0.4% (w/v) SRB solution in 1% (v/v) acetic acid to each well and incubatation for […] at RT completes the staining reaction. Following staining, plates are washed four times with 1% acetic acid to remove unbound dye and then allowed to air dry for 5 min. […] Absorbance is read at 570 nm.
(§3) The percentage (%) of relative growth inhibition was calculated by comparing to DMSO-treated only cells (100%). GI50's were determined for compounds with cytotoxic activity. The GI50 was calculated using GraphPad PRISM software (GraphPad Software, Inc., USA).

In test [10] the test system is human mammary epithelial primary cells (HMEC). Described as above. Format: cell-based. The settings on record: 120 h, 5 days, SRB, normal primary breast cells, read-out: Cell Line GI50 Range HMEC. On the procedure: as §1, §2, §3
The test system of test [11] is A549 lung cancer cell line. Described as above. Type of test: cell-based. As to conditions: Homo sapiens, A549, 120 h; 5 days, SRB; read-out: Cell Line GI50 Range A549. The protocol:
as §1, §2, §3

The test system of test [12] is MCF-7 luminal breast cancer cell line. The test is described as above. As to conditions: Homo sapiens, MCF7, 120 h; 5 days, SRB; read-out: Cell Line GI50 Range MCF-7. Format: cell-based. The protocol:
as §1, §2, §3

The test system of test [13] is HCC1954 basal breast cancer cell line. Described as above. Type of test: cell-based. The settings on record: Homo sapiens, HCC1954, 120 h; 5 days, SRB; Table 5; read-out: Cell Line GI50 Range HCC1954. On the procedure: as §1, §2, §3
The SRB assay described above was used to assay test compounds against the extended panel (Table 6).

We go through 17 molecules from patent publication US8933070B2, “Methods of targeting PTEN mutant diseases and compositions therefor” (University Health Network, priority 2010, dated 2015).

As a reminder, the IC50 is the point on the concentration scale where inhibition reaches its midpoint. On to `Cc1ncsc1/C=C/c1n[nH]c2cc(/C=C3/C(=O)Nc4ccccc43)ccc12` [Compound 10], for which the IC50 in [1] and in [2] was less than 5 µM throughout.
A word on the % Inhibition: it is the share of the control response that was lost under treatment. In the case of `O=C1Nc2ccccc2/C1=C\c1ccc2[nH]nnc2c1` [Compound 24], the “% Inhibition at 10 μM Concentration” value in [3] came to 15%.
As a reminder, the inhibition is the drop in the measured response relative to a control, in per cent. With `C[C@@H]1CN(Cc2ccc(/C=C/c3n[nH]c4cc([C@@H]5C[C@@]56C(=O)Nc5ccccc56)ccc34)cc2)C[C@H](C)O1` [Compound 38], the inhibition at 10 µM in [4] is greater than 50%.
Regarding `COc1ccc2c(c1)/C(=C\c1ccc3c(-c4ccc(N(C)C)nc4)n[nH]c3c1)C(=O)N2` [Compound 11], the IC50 in [4] (read-out: IC50 Ranges Aurora A), in test [1] and in [2] was less than 5 µM throughout.
As to `COc1ccc2c(c1)C1(CC1c1ccc3c(I)n[nH]c3c1)C(=O)N2` (centres unmarked) [Compound 12], the IC50 in test [1] is less than 5 µM.
As to `CN(C)Cc1ccc(/C=C/c2n[nH]c3cc([C@@H]4C[C@@]45C(=O)Nc4ccccc45)ccc23)cc1` (racemic) [Compound 5], the inhibition at 10 µM in test [5] and in test [6] was less than 50% in each case.
Consider `COc1ccc2c(c1)[C@]1(C[C@H]1c1ccc3c(/C=C/c4ccc(CN5CCOCC5)cc4)n[nH]c3c1)C(=O)N2C` [Compound 36], for which, in test [4], the inhibition at 10 µM is greater than 50%. Besides, the IC50 in test [2] is less than 5 µM.
Turning to `O=C1Nc2ccccc2[C@@]12C[C@@H]2c1ccc2cn[nH]c2c1` (racemic) [Compound 40], the IC50 in test [5] (read-out: IC50 Ranges PLK2) was greater than 50 µM.
As for `O=C1Nc2ccccc2/C1=C\c1ccc2c(/C=C/c3ccncc3)n[nH]c2c1` [Compound 28], in test [7], the IC50 is less than 5 µM.
For the molecule `O=C1Nc2ccccc2/C1=C\c1ccc2cn[nH]c2c1` [Compound 26], the “% Inhibition at 10 μM Concentration” value in [3] was determined as 54%.
`COc1ccc2c(c1)/C(=C\c1ccc3c(/C=C/c4ccc(CN(C)C)cc4)n[nH]c3c1)C(=O)N2` [Compound 1]: the IC50 in [1] was less than 5 µM.
With `COc1ccc2c(c1)[C@]1(C[C@H]1c1ccc3c(/C=C/c4ccc(CN5C[C@@H](C)O[C@@H](C)C5)cc4)n[nH]c3c1)C(=O)N2` [Compound 37], the inhibition at 10 µM in test [4] was greater than 50%.
`O=C1Nc2ccccc2/C1=C\c1ccc2c(/C=C/c3ccccc3Cl)n[nH]c2c1` [Compound 29]: the “% Inhibition at 10 μM Concentration” value in test [3] turned out to be 8%.
For orientation: GI50 means the concentration giving 50% growth inhibition. `O=C1Nc2ccccc2[C@@]12C[C@@H]2c1ccc2c(/C=C/c3ccncc3)n[nH]c2c1` (racemic) [Compound 6]: the 50% growth inhibitory concentration (GI50) in test [8] was less than 5 µM; in test [9], less than 5 µM; in [10], 5 to 20 µM; in test [11], less than 5 µM; in [12], less than 5 µM; in [13], less than 5 µM. In test [5], the inhibition at 10 µM is less than 50%.
In the case of `CN(C)Cc1ccc(/C=C/c2n[nH]c3cc(C=C4C(=O)Nc5ccccc54)ccc23)cc1` [Compound 39], the values for the inhibition at 10 µM in test [4] and in test [6] were greater than 50% and less than 50%, respectively. Further, the IC50 in test [7] is less than 5 µM.
Take `COc1ccc2c(c1)C(=Cc1ccc3c(-c4ccc(N5CCN(C)CC5)nc4)n[nH]c3c1)C(=O)N2` [Compound 31]: in [3], the “% Inhibition at 10 μM Concentration” value is 76%. Also, in [7], the IC50 was less than 5 µM.
Taken in the same sequence, the figures for `O=C1Nc2ccccc2C1=Cc1ccc2c(/C=C/c3ccccn3)n[nH]c2c1` [Compound 9] were 81% and less than 5 µM.
